{"source": "patent US20060057669A1", "about": "“Inactive transcription factor tif-ia and uses thereof” (priority 2002, published 2006)", "system": "TIF-IA", "test": "Two-dimensional tryptic phosphopeptide mapping of TIF-IA labeled in vivo in HEK293T cells", "type": "cell-based, human", "conditions": "serum-stimulated cells, 40 μM PD98059", "experimental": "HEK293T cells were transfected with pcDNA3.1-FLAG-TIF-IA, starved for 12 hr and labeled for 4 hr with [^32P]orthophosphate. 30 min before harvesting, 10% dialyzed FCS was added and cells were incubated in the absence (left panel) or presence of 40 μM PD98059 (right panel). Immunopurified TIF-IA was subjected to two-dimensional phosphopeptide mapping.\n(B) Tryptic peptide maps of TIF-IA phosphorylated in vivo. FLAG-tagged wild-type TIF-IA, TIF-IAS633A and TIF-IAS649A were expressed in HEK293T cells and labeled with [^32P]orthophosphate for 4 hr. TIF-IA was purified by immunoprecipitation and digested with trypsin. Phosphopeptides were separated on cellulose thin-layer plates and visualized by autoradiography. The sequence of the C-terminus of human TIF-IA (H.s.) and an alignment with the corresponding sequences from mouse (M.m.), Drosophila melanogaster (D.m.) and Saccharomyces pombe (S.p.) is shown above.\n(A) Two-dimensional tryptic phosphopeptide maps of TIF-IA. HEK293T cells were transfected with FLAG-tagged TIF-IA and labeled for 2 hr with [^32P]orthophosphate in the absence (left) or presence (right) of 20 nM rapamycin. TIF-IA was immunopurified, digested with trypsin, separated on cellulose thin-layer plates and visualized by autoradiography.\n(B) Tryptic phosphopeptide map of TIF-IAS44A phosphorylated in vivo. […]"}
{"smiles": "COc1cccc(-c2cc(=O)c3ccccc3o2)c1N", "note": "[PD98059]", "values": [{"measurement": "labeling of TIF-IA phosphopeptide spots d, f and g", "value": "impaired"}, {"measurement": "phosphorylation of TIF-IA phosphopeptide spots b and c", "value": "reduced"}]}
